Test results: the supplement of paper PMC10331698
± gives the standard deviation of the averaged measurements.

How the values were obtained:
Assay in all cases: level (log10 ratio to DMSO vehicle control); higher = higher biomarker level / cell amount than vehicle control
Settings in all cases: in DMSO
Azathioprine = compound: Cn1cnc([N+](=O)[O-])c1Sc1ncnc2[nH]cnc12 [Azathioprine]
Protocol: (§1)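 BioMAP Diversity Plus panel of 12 human primary cell co-culture systems (3C, 4H, LPS, SAg, BT, BF4T, BE3C, CASM3C, HDF3CGF, KF3CT, MyoF, Mphg). Compounds were added 1 h before stimulation and left for 24 h (MyoF 48 h; BT 72 h for soluble read-outs or 6 d for IgG). Biomarkers were read by ELISA, cytotoxicity by SRB, PBMC viability and proliferation by Alamar Blue. Each well value was divided by the mean of 8 DMSO control wells on the same plate and log10 transformed; duplicate blinded samples were tested at 4 concentrations.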

Perfluorohexanoic acid = compound: O=C(O)C(F)(F)C(F)(F)C(F)(F)C(F)(F)C(F)(F)F [Perfluorohexanoic acid]
Protocol: as §1

[1] = compound: O=S(=O)(O)C(F)(F)C(F)(F)C(F)(F)C(F)(F)F [Perfluorobutanesulfonic acid]
Protocol: as §1

Test System: LPS:IL-1alpha
- level (log10) (Azathioprine; 1400 nM): 0.0405 ± 0.067
- level (log10) (Azathioprine; 4200 nM): 0.04 ± 0.064
- level (log10) (Azathioprine; 13000 nM): 0.0165 ± 0.0064
- level (log10) (Azathioprine; 38000 nM): -0.0185 ± 0.00071
- level (log10) (Perfluorohexanoic acid; 6700 nM): 0.0135 ± 0.0064
- level (log10) (Perfluorohexanoic acid; 20000 nM): 0.0145 ± 0.0092
- level (log10) (Perfluorohexanoic acid; 60000 nM): -0.003 ± 0.02
- level (log10) ([1]; 6700 nM): -0.0445 ± 0.067
- level (log10) ([1]; 20000 nM): -0.0235 ± 0.013
- level (log10) ([1]; 60000 nM): -0.0265 ± 0.05

Test System: BT:sIL-17F
- level (log10) (Azathioprine; 1400 nM): -0.0825 ± 0.079
- level (log10) (Azathioprine; 4200 nM): -0.041 ± 0.12
- level (log10) (Azathioprine; 13000 nM): -0.092 ± 0.054
- level (log10) (Azathioprine; 38000 nM): -0.254 ± 0.025
- level (log10) (Perfluorohexanoic acid; 6700 nM): -0.081 ± 0.0014
- level (log10) (Perfluorohexanoic acid; 20000 nM): -0.002 ± 0.081
- level (log10) (Perfluorohexanoic acid; 60000 nM): -0.047 ± 0.031
- level (log10) ([1]; 6700 nM): 0.008 ± 0.0057
- level (log10) ([1]; 20000 nM): 0.0145 ± 0.04
- level (log10) ([1]; 60000 nM): -0.0225 ± 0.0064

Test System: 3C:HLA-DR
- level (log10) (Azathioprine; 1400 nM): 0.006 ± 0.013
- level (log10) (Azathioprine; 4200 nM): -0.001 ± 0.021
- level (log10) (Azathioprine; 13000 nM): 0.005 ± 0.048
- level (log10) (Azathioprine; 38000 nM): 0.005 ± 0.042
- level (log10) (Perfluorohexanoic acid; 6700 nM): 0.002 ± 0.0042
- level (log10) (Perfluorohexanoic acid; 20000 nM): 0.004 ± 0.014
- level (log10) (Perfluorohexanoic acid; 60000 nM): -0.002 ± 0.0085
- level (log10) ([1]; 6700 nM): -0.0015 ± 0.015
- level (log10) ([1]; 20000 nM): -0.007 ± 0.0057
- level (log10) ([1]; 60000 nM): -0.006 ± 0.013

Test System: 4H:CD87/uPAR
- level (log10) (Azathioprine; 1400 nM): 0.0045 ± 0.018
- level (log10) (Azathioprine; 4200 nM): -0.03 ± 0.035
- level (log10) (Azathioprine; 13000 nM): -0.0015 ± 0.00071
- level (log10) (Azathioprine; 38000 nM): 0.0315 ± 0.00071
- level (log10) (Perfluorohexanoic acid; 6700 nM): 0.0025 ± 0.042
- level (log10) (Perfluorohexanoic acid; 20000 nM): -0.002 ± 0.011
- level (log10) (Perfluorohexanoic acid; 60000 nM): 0.0205 ± 0.039
- level (log10) ([1]; 6700 nM): 0.0115 ± 0.052
- level (log10) ([1]; 20000 nM): 0.0235 ± 0.022
- level (log10) ([1]; 60000 nM): 0.025 ± 0.021

Test System: BF4T:MMP-1
- level (log10) (Azathioprine; 1400 nM): 0 ± 0.014
- level (log10) (Azathioprine; 4200 nM): -0.001 ± 0.0042
- level (log10) (Azathioprine; 13000 nM): -0.003 ± 0.0042
- level (log10) (Azathioprine; 38000 nM): 0.019 ± 0.025
- level (log10) (Perfluorohexanoic acid; 6700 nM): 0.0005 ± 0.015
- level (log10) (Perfluorohexanoic acid; 20000 nM): -0.009 ± 0.0071
- level (log10) (Perfluorohexanoic acid; 60000 nM): -0.0005 ± 0.0078
- level (log10) ([1]; 6700 nM): 0.0035 ± 0.0064
- level (log10) ([1]; 20000 nM): -0.009 ± 0.013
- level (log10) ([1]; 60000 nM): -0.0045 ± 0.00071

Test System: BT:sIL-17A
- level (log10) (Azathioprine; 1400 nM): -0.075 ± 0.078
- level (log10) (Azathioprine; 4200 nM): -0.179 ± 0.099
- level (log10) (Azathioprine; 13000 nM): -0.304 ± 0.0057
- level (log10) (Azathioprine; 38000 nM): -0.804 ± 0.058
- level (log10) (Perfluorohexanoic acid; 6700 nM): 0.009 ± 0.22
- level (log10) (Perfluorohexanoic acid; 20000 nM): 0.038 ± 0.075
- level (log10) (Perfluorohexanoic acid; 60000 nM): -0.086 ± 0.068
- level (log10) ([1]; 6700 nM): -0.0215 ± 0.14
- level (log10) ([1]; 20000 nM): 0.157 ± 0.016
- level (log10) ([1]; 60000 nM): 0.021 ± 0.2

Test System: BF4T:Keratin 8/18
- level (log10) (Azathioprine; 1400 nM): 0.0075 ± 0.026
- level (log10) (Azathioprine; 4200 nM): -0.0055 ± 0.0035
- level (log10) (Azathioprine; 13000 nM): -0.0115 ± 0.013
- level (log10) (Azathioprine; 38000 nM): 0.0115 ± 0.026
- level (log10) (Perfluorohexanoic acid; 6700 nM): 0.017 ± 0.028
- level (log10) (Perfluorohexanoic acid; 20000 nM): 0.0165 ± 0.015
- level (log10) (Perfluorohexanoic acid; 60000 nM): -0.006 ± 0.037
- level (log10) ([1]; 6700 nM): -0.0245 ± 0.028
- level (log10) ([1]; 20000 nM): -0.0145 ± 0.011
- level (log10) ([1]; 60000 nM): -0.0045 ± 0.015

Test System: 4H:CCL26/Eotaxin-3
- level (log10) (Azathioprine; 1400 nM): 0.016 ± 0.0099
- level (log10) (Azathioprine; 4200 nM): -0.009 ± 0.021
- level (log10) (Azathioprine; 13000 nM): -0.003 ± 0.011
- level (log10) (Azathioprine; 38000 nM): -0.0255 ± 0.035
- level (log10) (Perfluorohexanoic acid; 6700 nM): 0.0005 ± 0.005
- level (log10) (Perfluorohexanoic acid; 20000 nM): -0.004 ± 0.0099
- level (log10) (Perfluorohexanoic acid; 60000 nM): -0.015 ± 0.0071
- level (log10) ([1]; 6700 nM): -0.0025 ± 0.054
- level (log10) ([1]; 20000 nM): -0.001 ± 0.051
- level (log10) ([1]; 60000 nM): -0.048 ± 0.028

Test System: LPS:CD142/Tissue Factor
- level (log10) (Azathioprine; 1400 nM): 0.042 ± 0.028
- level (log10) (Azathioprine; 4200 nM): 0.014 ± 0.0042
- level (log10) (Azathioprine; 13000 nM): 0.0375 ± 0.0064
- level (log10) (Azathioprine; 38000 nM): -0.0085 ± 0.044
- level (log10) (Perfluorohexanoic acid; 6700 nM): 0.0205 ± 0.021
- level (log10) (Perfluorohexanoic acid; 20000 nM): 0.0045 ± 0.011
- level (log10) (Perfluorohexanoic acid; 60000 nM): 0.015 ± 0.0071
- level (log10) ([1]; 6700 nM): 0.016 ± 0.038
- level (log10) ([1]; 20000 nM): -0.0155 ± 0.039
- level (log10) ([1]; 60000 nM): -0.0175 ± 0.016
